Values after ≈ are worked out from the molar mass of the structure shown. Structures can show the parent of a compound that is named as a salt. Where two headings read alike, the source gives them in different places.
Columns and labels:
E. coli TK-3 = assay: Antibacterial activity (MIC, agar dilution) against E. coli TK-3*; assay type: cell-based; settings: Escherichia coli
Protocol: (§1) According to Chemotherapy, vol. 29, No. 1, pp. 76-79 (1981), bacterium was cultured in peptone broth manufactured by Eiken Kagaku K.K. at 37° C. for 20 hours to prepare a bacterial solution of 10^8 cells/ml, and one loopful of the bacterial solution was inoculated into Heart Infusion agar medium (manufactured by Eiken Kagaku K.K.) containing a drug, cultured at 37° C. for 20 hours, after which growth of bacterium was observed. The minimum concentration at which the growth of bacterium was prevented was indicated as MIC (μg/ml).
(§2) *means that β-lactamaseproducing bacteria.

S. marcescens W-8 = assay: Antibacterial activity (MIC, agar dilution) against S. marcescens W-8*; assay type: cell-based; settings: Serratia marcescens
Protocol: as §1, §2

[1] = TK3, E. coli TK-3* (β-lactamase-producing bacteria), Heart Infusion agar, 37° C., 20 hours, one loopful of 10^8 cells/ml, read-out: MIC
[2] = W8, S. marcescens W-8* (β-lactamase-producing bacteria), Heart Infusion agar, 37° C., 20 hours, one loopful of 10^8 cells/ml, read-out: MIC

NC(=O)NN1CCN([C@]2(C(=O)O)CN3C(=O)[C@@H](NC(=O)[C@@H](c4ccc(O)cc4)S(=O)(=O)O)[C@H]3S2)C1=O [compound 40] was tested, and the MIC (E. coli TK-3; TK3, 20 h) was 3.13 µg/mL (≈ 5.75 µM) and the MIC (S. marcescens W-8; W8, 20 h) was 0.78 µg/mL (≈ 1.43 µM).

Compound O=C(O)C=CC=NN1CCN([C@]2(C(=O)O)CN3C(=O)[C@@H](NC(=O)C(C(=O)O)c4ccccc4)[C@H]3S2)C1=O (stereo partly shown) [compound 11] has an MIC (E. coli TK-3; [1]) of 0.2 µg/mL (≈ 0.376 µM) and an MIC (S. marcescens W-8; [2]) of 0.1 µg/mL (≈ 0.188 µM).

For O=C(O)C(C(=O)N[C@@H]1C(=O)N2C[C@@](C(=O)O)(N3CCN(N=C4C=CCC4)C3=O)S[C@H]12)c1ccccc1 (stereo partly shown) [compound 50], the MIC (E. coli TK-3; TK3, 20 h) was 0.39 µg/mL (≈ 0.759 µM) and the MIC (S. marcescens W-8; [2]) was 0.1 µg/mL (≈ 0.195 µM).

O=C(O)CC(=O)NN1CCN([C@]2(C(=O)O)CN3C(=O)[C@@H](NC(=O)C(C(=O)O)c4ccc(O)cc4)[C@H]3S2)C1=O (stereo partly shown) [compound 15] gave an MIC (E. coli TK-3; [1]) of 12.5 µg/mL (≈ 22.7 µM) and an MIC (S. marcescens W-8; [2]) of 12.5 µg/mL (≈ 22.7 µM).

Work on CC(=O)Oc1cc(C(C(=O)N[C@@H]2C(=O)N3C[C@@](C(=O)O)(N4CCN(NC(N)=O)C4=O)S[C@H]23)S(=O)(=O)O)cc(Cl)c1OC(C)=O (stereo partly shown) [compound 22] yielded an MIC (E. coli TK-3; [1]) of 6.25 µg/mL (≈ 9.2 µM) and an MIC (S. marcescens W-8; [2]) of 12.5 µg/mL (≈ 18.4 µM).

For CCN1CCN(C(=O)N[C@@H](C(=O)N[C@@H]2C(=O)N3C[C@@](C(=O)O)(N4CCN(C)C4=O)S[C@H]23)c2ccccc2)C(=O)C1=O [compound 51, Sodium salt of (3R,5R,6R)3-carboxy-6-[D-α-(4-ethyl-2,3-dioxo-1-piperazinecarboxamio)-α-phenylacetamido]-3-(3-methyl-2-oxoimidazolidin-1-yl)-7-oxo-4-tha-1-azabicyclo[3.2.0]heptane, reference compound], the MIC (E. coli TK-3; [1]) was > 200 µg/mL and the MIC (S. marcescens W-8; [2]) was > 200 µg/mL.

NC(=O)NN1CCN([C@]2(C(=O)O)CN3C(=O)[C@@H](NC(=O)[C@@H](c4ccc(O)cc4Cl)S(=O)(=O)O)[C@H]3S2)C1=O [compound 37] gave an MIC (E. coli TK-3; TK3, 20 h) of 0.78 µg/mL (≈ 1.35 µM) and an MIC (S. marcescens W-8; [2]) of 0.2 µg/mL (≈ 0.345 µM).

Compound CC(=O)Oc1cc(Cl)c([C@H](C(=O)N[C@@H]2C(=O)N3C[C@@](C(=O)O)(N4CCN(N=CC=NNC(N)=O)C4=O)S[C@H]23)S(=O)(=O)O)cc1OC(C)=O [compound 34] has an MIC (E. coli TK-3; [1]) of 0.2 µg/mL (≈ 0.273 µM) and an MIC (S. marcescens W-8; W8, 20 h) of 0.39 µg/mL (≈ 0.532 µM).

NC(=O)NN1CCN([C@]2(C(=O)O)CN3C(=O)[C@@H](NC(=O)[C@@H](c4ccc(O)c(F)c4)S(=O)(=O)O)[C@H]3S2)C1=O [compound 39] was tested, and the MIC (E. coli TK-3; TK3, 20 h) was 3.13 µg/mL (≈ 5.56 µM) and the MIC (S. marcescens W-8; W8, 20 h) was 0.78 µg/mL (≈ 1.39 µM).

Work on NC(=O)NN1CCN([C@]2(C(=O)O)CN3C(=O)[C@@H](NC(=O)[C@@H](c4ccc(O)c(O)c4)S(=O)(=O)O)[C@H]3S2)C1=O [compound 41] yielded an MIC (E. coli TK-3; TK3, 20 h) of 3.13 µg/mL (≈ 5.58 µM) and an MIC (S. marcescens W-8; [2]) of 1.56 µg/mL (≈ 2.78 µM).

Work on N#CC=CC=NN1CCN([C@]2(C(=O)O)CN3C(=O)[C@@H](NC(=O)C(C(=O)O)c4ccccc4)[C@H]3S2)C1=O (stereo partly shown) [compound 31] yielded an MIC (E. coli TK-3; [1]) of 0.2 µg/mL (≈ 0.39 µM) and an MIC (S. marcescens W-8; [2]) of 0.1 µg/mL (≈ 0.195 µM).

Work on NC(=O)C=CC=NN1CCN([C@]2(C(=O)O)CN3C(=O)[C@@H](NC(=O)C(C(=O)O)c4ccccc4)[C@H]3S2)C1=O (stereo partly shown) [compound 33] yielded an MIC (E. coli TK-3; [1]) of 0.39 µg/mL (≈ 0.735 µM) and an MIC (S. marcescens W-8; [2]) of 0.2 µg/mL (≈ 0.377 µM).

C=CC=NN1CCN([C@]2(C(=O)O)CN3C(=O)[C@@H](NC(=O)C(C(=O)O)c4ccccc4)[C@H]3S2)C1=O (stereo partly shown) [compound 10] gave an MIC (E. coli TK-3; [1]) of 0.1 µg/mL (≈ 0.205 µM) and an MIC (S. marcescens W-8; W8, 20 h) of 0.05 µg/mL (≈ 0.103 µM).

For CC(=O)Oc1cc(Cl)c(C(C(=O)N[C@@H]2C(=O)N3C[C@@](C(=O)O)(N4CCN(NC(N)=O)C4=O)S[C@H]23)S(=O)(=O)O)cc1OC(C)=O (stereo partly shown) [compound 20], the MIC (E. coli TK-3; [1]) was 0.78 µg/mL (≈ 1.15 µM) and the MIC (S. marcescens W-8; [2]) was 0.78 µg/mL (≈ 1.15 µM).

With C=CC=NN1CCN([C@]2(C(=O)O)CN3C(=O)[C@@H](NC(=O)C(c4cc(O)c(O)cc4Cl)S(=O)(=O)O)[C@H]3S2)C1=O (stereo partly shown) [compound 49] the MIC (E. coli TK-3; TK3, 20 h) was ≤ 0.05 µg/mL and the MIC (S. marcescens W-8; W8, 20 h) was ≤ 0.05 µg/mL.

O=C(N[C@@H]1C(=O)N2C[C@@](C(=O)O)(N3CCN(N=C4SCCS4)C3=O)S[C@H]12)C(c1ccccc1)S(=O)(=O)O (stereo partly shown) [compound 26] was tested, and the MIC (E. coli TK-3; [1]) was ≤ 0.1 µg/mL and the MIC (S. marcescens W-8; W8, 20 h) was 0.39 µg/mL (≈ 0.664 µM).

C#CC=NN1CCN([C@]2(C(=O)O)CN3C(=O)[C@@H](NC(=O)C(C(=O)O)c4ccc(O)cc4)[C@H]3S2)C1=O (stereo partly shown) [compound 19] was tested, and the MIC (E. coli TK-3; TK3, 20 h) was ≤ 0.05 µg/mL and the MIC (S. marcescens W-8; W8, 20 h) was ≤ 0.05 µg/mL.

Work on CSC(=NN1CCN([C@]2(C(=O)O)CN3C(=O)[C@@H](NC(=O)C(C(=O)O)c4ccccc4)[C@H]3S2)C1=O)SC (stereo partly shown) [compound 6] yielded an MIC (E. coli TK-3; TK3, 20 h) of 3.13 µg/mL (≈ 5.65 µM) and an MIC (S. marcescens W-8; [2]) of 1.56 µg/mL (≈ 2.82 µM).

Work on NS(=O)(=O)NN1CCN([C@]2(C(=O)O)CN3C(=O)[C@@H](NC(=O)C(C(=O)O)c4ccc(O)cc4)[C@H]3S2)C1=O (stereo partly shown) [compound 44] yielded an MIC (E. coli TK-3; [1]) of 6.25 µg/mL (≈ 11.5 µM) and an MIC (S. marcescens W-8; [2]) of 6.25 µg/mL (≈ 11.5 µM).

Compound O=C(O)C(C(=O)N[C@@H]1C(=O)N2C[C@@](C(=O)O)(N3CCN(N=CC=CCS(=O)(=O)O)C3=O)S[C@H]12)c1ccccc1 (stereo partly shown) [compound 12] has an MIC (E. coli TK-3; [1]) of 0.78 µg/mL (≈ 1.34 µM) and an MIC (S. marcescens W-8; [2]) of 0.1 µg/mL (≈ 0.172 µM).

For O=C(O)C(C(=O)N[C@@H]1C(=O)N2C[C@@](C(=O)O)(N3CCN(N=C4SCCS4)C3=O)S[C@H]12)c1ccccc1 (stereo partly shown) [compound 1], the MIC (E. coli TK-3; TK3, 20 h) was 0.39 µg/mL (≈ 0.707 µM) and the MIC (S. marcescens W-8; [2]) was 0.1 µg/mL (≈ 0.181 µM).

CNC(=O)NN1CCN([C@]2(C(=O)O)CN3C(=O)[C@@H](NC(=O)C(C(=O)O)c4ccc(O)cc4)[C@H]3S2)C1=O (stereo partly shown) [compound 17] gave an MIC (E. coli TK-3; [1]) of 1.56 µg/mL (≈ 2.99 µM) and an MIC (S. marcescens W-8; [2]) of 1.56 µg/mL (≈ 2.99 µM).

Compound C=CC(=O)NN1CCN([C@]2(C(=O)O)CN3C(=O)[C@@H](NC(=O)C(C(=O)O)c4ccc(O)cc4)[C@H]3S2)C1=O (stereo partly shown) [compound 45] has an MIC (E. coli TK-3; TK3, 20 h) of 3.13 µg/mL (≈ 6.03 µM) and an MIC (S. marcescens W-8; W8, 20 h) of 3.13 µg/mL (≈ 6.03 µM).
